Results as given in BindingDB's records for doi:10.1021/jm00055a008 (Tufts University, 1993).

Target: Tetracycline efflux protein TetA(B) (Escherichia coli)
Experiment: Inhibition of [3H]tetracycline uptake into everted membrane vesicles, prepared from tetracycline resistant Escherichia coli D1-209

| IC50 [nM] | SMILES |
| --- | --- |
| 43200 | CN(C)[C@@H]1C(=O)C(C(N)=O)C(=O)[C@@]2(O)C(=O)C3C(=O)c4c(O)cccc4[C@H](CSCCC(=O)O)C3[C@H](O)C12 (stereo not given in full) [3-(9-Carbamoyl-7-dimethylamino-1,6,8,10a,11-pentahydroxy-10,12-dioxo-5,5a,6,6a,7,10,10a,12-octahydro-naphthacen-5-ylmethylsulfanyl)-propionic acid] |
| 1500 | CN(C)[C@@H]1C(=O)C(C(N)=O)C(=O)[C@@]2(O)C(=O)C3C(=O)c4c(O)cccc4[C@H](CS(=O)(=O)Cc4ccccc4)C3[C@H](O)C12 (stereo not given in full) [4-Dimethylamino-3,5,10,12,12a-pentahydroxy-1,11-dioxo-6-phenylmethanesulfonylmethyl-1,4,4a,5,5a,6,11,12a-octahydro-naphthacene-2-carboxylic acid amide] |
| 6900 | CN(C)[C@@H]1C(=O)C(C(N)=O)C(=O)[C@@]2(O)C(=O)C3C(=O)c4c(O)cccc4[C@H](CSc4ccccc4)C3[C@H](O)C12 (stereo not given in full) [4-Dimethylamino-3,5,10,12,12a-pentahydroxy-1,11-dioxo-6-phenylsulfanylmethyl-1,4,4a,5,5a,6,11,12a-octahydro-naphthacene-2-carboxylic acid amide] |
| 1200 | COc1ccc(SC[C@H]2c3cccc(O)c3C(=O)C3C(=O)[C@]4(O)C(=O)C(C(N)=O)C(=O)[C@@H](N(C)C)C4[C@@H](O)C32)cc1 (stereo not given in full) [4-Dimethylamino-3,5,10,12,12a-pentahydroxy-6-(4-methoxy-phenylsulfanylmethyl)-1,11-dioxo-1,4,4a,5,5a,6,11,12a-octahydro-naphthacene-2-carboxylic acid amide] |
| 7900 | CSC[C@H]1c2cccc(O)c2C(=O)C2C(=O)[C@]3(O)C(=O)C(C(N)=O)C(=O)[C@@H](N(C)C)C3[C@@H](O)C21 (stereo not given in full) [4-Dimethylamino-3,5,10,12,12a-pentahydroxy-6-methylsulfanylmethyl-1,11-dioxo-1,4,4a,5,5a,6,11,12a-octahydro-naphthacene-2-carboxylic acid amide] |
| 2100 | CN(C)[C@@H]1C(=O)C(C(N)=O)C(=O)[C@@]2(O)C(=O)C3C(=O)c4c(O)cccc4[C@H](CSCc4ccc(Cl)cc4)C3[C@H](O)C12 (stereo not given in full) [6-(4-Chloro-benzylsulfanylmethyl)-4-dimethylamino-3,5,10,12,12a-pentahydroxy-1,11-dioxo-1,4,4a,5,5a,6,11,12a-octahydro-naphthacene-2-carboxylic acid amide] |
| 1600 | CN(C)[C@@H]1C(=O)C(C(N)=O)C(=O)[C@@]2(O)C(=O)C3C(=O)c4c(O)cccc4[C@H](CSc4ccc(Cl)cc4)C3[C@H](O)C12 (stereo not given in full) [6-(4-Chloro-phenylsulfanylmethyl)-4-dimethylamino-3,5,10,12,12a-pentahydroxy-1,11-dioxo-1,4,4a,5,5a,6,11,12a-octahydro-naphthacene-2-carboxylic acid amide] |
| 800 | CCCCSC[C@H]1c2cccc(O)c2C(=O)C2C(=O)[C@]3(O)C(=O)C(C(N)=O)C(=O)[C@@H](N(C)C)C3[C@@H](O)C21 (stereo not given in full) [6-Butylsulfanylmethyl-4-dimethylamino-3,5,10,12,12a-pentahydroxy-1,11-dioxo-1,4,4a,5,5a,6,11,12a-octahydro-naphthacene-2-carboxylic acid amide] |
| 1000 | CN(C)[C@@H]1C(=O)C(C(=O)NCN2CCOCC2)C(=O)[C@@]2(O)C(=O)C3C(=O)c4c(O)cccc4[C@H](CSC4CCCC4)C3[C@H](O)C12 (stereo not given in full) [6-Cyclopentylsulfanylmethyl-4-dimethylamino-3,5,10,12,12a-pentahydroxy-1,11-dioxo-1,4,4a,5,5a,6,11,12a-octahydro-naphthacene-2-carboxylic acid (morpholin-4-ylmethyl)-amide] |
| 500 | CN(C)[C@@H]1C(=O)C(C(N)=O)C(=O)[C@@]2(O)C(=O)C3C(=O)c4c(O)cccc4[C@H](CSC(C)(C)C)C3[C@H](O)C12 (stereo not given in full) [6-tert-Butylsulfanylmethyl-4-dimethylamino-3,5,10,12,12a-pentahydroxy-1,11-dioxo-1,4,4a,5,5a,6,11,12a-octahydro-naphthacene-2-carboxylic acid amide] |
